# Measurements taken from PubChem BioAssay (NCI).
#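 Dose response: 5 concentrations. Exposure: 48 h. Format: 96-well plates. Endpoint: linear interpolation; highest concentration if not reached. GI50 = concentration required for 50% inhibition of growth. TGI denotes the concentration required for complete inhibition of growth.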
# Tests used:
# Experiment in all cases: NCI-60 cell line screen, 48 h
# PC-3 prostate = tested on: PC-3 prostate
# UACC-257 melanoma = tested on: UACC-257 melanoma
# TK-10 renal = tested on: TK-10 renal
# MOLT-4 leukemia = tested on: MOLT-4 leukemia
# M14 melanoma = tested on: M14 melanoma
# 786-0 renal = tested on: 786-0 renal
# HCT-116 colon = tested on: HCT-116 colon
# CCRF-CEM leukemia = tested on: CCRF-CEM leukemia
# MDA-N = tested on: MDA-N
# DU-145 prostate = tested on: DU-145 prostate
# RXF 393 renal = tested on: RXF 393 renal
# U251 CNS = tested on: U251 CNS
# K-562 leukemia = tested on: K-562 leukemia
# HCT-15 colon = tested on: HCT-15 colon
# HS 578T breast = tested on: HS 578T breast
# SR leukemia = tested on: SR leukemia
# MDA-MB-231 breast = tested on: MDA-MB-231 breast
# A498 renal = tested on: A498 renal
# OVCAR-3 ovarian = tested on: OVCAR-3 ovarian
# SNB-19 CNS = tested on: SNB-19 CNS
# OVCAR-5 ovarian = tested on: OVCAR-5 ovarian
# HOP-92 NSCLC = tested on: HOP-92 NSCLC
# SF-295 CNS = tested on: SF-295 CNS
# MDA-MB-435 = tested on: MDA-MB-435
# UO-31 renal = tested on: UO-31 renal
# SK-MEL-5 melanoma = tested on: SK-MEL-5 melanoma
# LOX IMVI melanoma = tested on: LOX IMVI melanoma
# RPMI-8226 leukemia = tested on: RPMI-8226 leukemia
# MALME-3M melanoma = tested on: MALME-3M melanoma
# MCF7 breast = tested on: MCF7 breast
# NCI-H23 lung = tested on: NCI-H23 lung
# HOP-62 NSCLC = tested on: HOP-62 NSCLC
# OVCAR-8 ovarian = tested on: OVCAR-8 ovarian
# COLO 205 colon = tested on: COLO 205 colon
# NCI-H226 lung = tested on: NCI-H226 lung
# SN12C renal = tested on: SN12C renal
# A549 NSCLC = tested on: A549 NSCLC
# SNB-75 CNS = tested on: SNB-75 CNS
# CAKI-1 renal = tested on: CAKI-1 renal
# NCI-H522 lung = tested on: NCI-H522 lung
# BT-549 breast = tested on: BT-549 breast
# SF-539 CNS = tested on: SF-539 CNS
# HCC-2998 colon = tested on: HCC-2998 colon
# UACC-62 melanoma = tested on: UACC-62 melanoma
# HT29 colon = tested on: HT29 colon
# KM12 colon = tested on: KM12 colon
# OVCAR-4 ovarian = tested on: OVCAR-4 ovarian
# EKVX NSCLC = tested on: EKVX NSCLC
# NCI/ADR-RES ovarian = tested on: NCI/ADR-RES ovarian
# SW-620 colon = tested on: SW-620 colon
# ACHN renal = tested on: ACHN renal
# SK-OV-3 ovarian = tested on: SK-OV-3 ovarian
# NCI-H460 lung = tested on: NCI-H460 lung
# SK-MEL-28 melanoma = tested on: SK-MEL-28 melanoma
# SF-268 CNS = tested on: SF-268 CNS
# T-47D breast = tested on: T-47D breast
# SK-MEL-2 melanoma = tested on: SK-MEL-2 melanoma
# HL-60(TB) leukemia = tested on: HL-60(TB) leukemia
# IGROV1 ovarian = tested on: IGROV1 ovarian
smiles,measurement,setting,value
CCOC(=O)c1c(N2CCCC2)[nH]c(=O)c(C(c2ccc(N(C)C)cc2)c2c(O)c(C(=O)OCC)c(N3CCCC3)[nH]c2=O)c1O,TGI,PC-3 prostate,> 100 µM
same,TGI,UACC-257 melanoma,> 100 µM
same,TGI,TK-10 renal,> 100 µM
same,TGI,MOLT-4 leukemia,> 100 µM
same,TGI,M14 melanoma,> 100 µM
same,TGI,786-0 renal,> 100 µM
same,TGI,HCT-116 colon,> 100 µM
same,TGI,CCRF-CEM leukemia,> 100 µM
same,TGI,MDA-N,> 100 µM
same,TGI,DU-145 prostate,> 100 µM
same,TGI,RXF 393 renal,> 100 µM
same,TGI,U251 CNS,> 100 µM
same,TGI,K-562 leukemia,> 100 µM
same,TGI,HCT-15 colon,> 100 µM
same,TGI,HS 578T breast,> 100 µM
same,TGI,SR leukemia,> 100 µM
same,TGI,MDA-MB-231 breast,> 100 µM
same,TGI,A498 renal,> 100 µM
same,TGI,OVCAR-3 ovarian,> 100 µM
same,TGI,SNB-19 CNS,> 100 µM
same,TGI,OVCAR-5 ovarian,> 100 µM
same,TGI,HOP-92 NSCLC,> 100 µM
same,TGI,SF-295 CNS,> 100 µM
same,TGI,MDA-MB-435,> 100 µM
same,TGI,UO-31 renal,> 100 µM
same,TGI,SK-MEL-5 melanoma,> 100 µM
same,TGI,LOX IMVI melanoma,> 100 µM
same,TGI,RPMI-8226 leukemia,> 100 µM
same,TGI,MALME-3M melanoma,> 100 µM
same,TGI,MCF7 breast,> 100 µM
same,TGI,NCI-H23 lung,> 100 µM
same,TGI,HOP-62 NSCLC,> 100 µM
same,TGI,OVCAR-8 ovarian,> 100 µM
same,TGI,COLO 205 colon,> 100 µM
same,TGI,NCI-H226 lung,> 100 µM
same,TGI,SN12C renal,> 100 µM
same,TGI,A549 NSCLC,> 100 µM
same,TGI,SNB-75 CNS,> 100 µM
same,TGI,CAKI-1 renal,> 100 µM
same,TGI,NCI-H522 lung,> 100 µM
same,TGI,BT-549 breast,> 100 µM
same,TGI,SF-539 CNS,> 100 µM
same,TGI,HCC-2998 colon,> 100 µM
same,TGI,UACC-62 melanoma,> 100 µM
same,TGI,HT29 colon,> 100 µM
same,TGI,KM12 colon,> 100 µM
same,TGI,OVCAR-4 ovarian,> 100 µM
same,TGI,EKVX NSCLC,> 100 µM
same,TGI,NCI/ADR-RES ovarian,> 100 µM
same,TGI,SW-620 colon,> 100 µM
same,TGI,ACHN renal,> 100 µM
same,TGI,SK-OV-3 ovarian,> 100 µM
same,TGI,NCI-H460 lung,> 100 µM
same,TGI,SK-MEL-28 melanoma,> 100 µM
same,TGI,SF-268 CNS,> 100 µM
same,TGI,T-47D breast,> 100 µM
COc1cc2c3c(n(C)c(=O)c2cc1OC)-c1cc2c(cc1/C3=C\CCCCCBr)OCO2,TGI,PC-3 prostate,> 100 µM
same,TGI,UACC-257 melanoma,> 100 µM
same,TGI,TK-10 renal,55.8 µM
same,TGI,MOLT-4 leukemia,10.5 µM
same,TGI,M14 melanoma,> 100 µM
same,TGI,786-0 renal,> 100 µM
same,GI50,HCT-116 colon,6.14 µM
same,TGI,HCT-116 colon,44.7 µM
same,TGI,CCRF-CEM leukemia,38.3 µM
same,TGI,MDA-N,> 100 µM
same,GI50,DU-145 prostate,5.54 µM
same,TGI,DU-145 prostate,> 100 µM
same,TGI,U251 CNS,24.1 µM
same,TGI,K-562 leukemia,30.2 µM
same,TGI,HCT-15 colon,> 100 µM
same,TGI,SK-MEL-2 melanoma,> 100 µM
same,TGI,HS 578T breast,> 100 µM
same,TGI,SR leukemia,14.1 µM
same,TGI,MDA-MB-231 breast,> 100 µM
same,TGI,A498 renal,46 µM
same,TGI,SNB-19 CNS,> 100 µM
same,TGI,OVCAR-5 ovarian,> 100 µM
same,TGI,HOP-92 NSCLC,38.7 µM
same,TGI,SF-295 CNS,> 100 µM
same,GI50,MDA-MB-435,19.2 µM
same,TGI,MDA-MB-435,> 100 µM
same,TGI,HL-60(TB) leukemia,20.3 µM
same,TGI,UO-31 renal,47.8 µM
same,TGI,SK-MEL-5 melanoma,20.7 µM
same,TGI,LOX IMVI melanoma,13.7 µM
same,TGI,RPMI-8226 leukemia,26 µM
same,TGI,MCF7 breast,> 100 µM
same,TGI,NCI-H23 lung,> 100 µM
same,GI50,HOP-62 NSCLC,3.09 µM
same,TGI,HOP-62 NSCLC,25.1 µM
same,TGI,IGROV1 ovarian,0.605 µM
same,TGI,OVCAR-8 ovarian,> 100 µM
same,TGI,COLO 205 colon,> 100 µM
same,TGI,SN12C renal,> 100 µM
same,TGI,A549 NSCLC,> 100 µM
same,TGI,SNB-75 CNS,43 µM
same,TGI,CAKI-1 renal,> 100 µM
same,TGI,NCI-H522 lung,52.4 µM
same,TGI,BT-549 breast,> 100 µM
same,GI50,SF-539 CNS,5.7 µM
same,TGI,SF-539 CNS,89.8 µM
same,GI50,UACC-62 melanoma,3.87 µM
same,TGI,UACC-62 melanoma,29 µM
same,TGI,HT29 colon,> 100 µM
same,TGI,KM12 colon,> 100 µM
same,TGI,OVCAR-4 ovarian,> 100 µM
same,TGI,EKVX NSCLC,> 100 µM
same,TGI,NCI/ADR-RES ovarian,> 100 µM
same,TGI,SW-620 colon,> 100 µM
same,TGI,ACHN renal,41.7 µM
same,TGI,SK-OV-3 ovarian,79.3 µM
same,TGI,NCI-H460 lung,69.8 µM
same,TGI,SK-MEL-28 melanoma,3.24 µM
same,TGI,SF-268 CNS,> 100 µM
same,TGI,T-47D breast,7.92 µM
Cc1cc2c(c(C(=O)NCC(=O)O)c1)Oc1c(cc(C)cc1C(=O)NCC(=O)O)S2,TGI,PC-3 prostate,> 100 µM
same,TGI,UACC-257 melanoma,> 100 µM
same,TGI,TK-10 renal,> 100 µM
same,TGI,MOLT-4 leukemia,> 100 µM
same,TGI,M14 melanoma,> 100 µM
same,TGI,786-0 renal,> 100 µM
same,TGI,HCT-116 colon,> 100 µM
same,TGI,CCRF-CEM leukemia,> 100 µM
same,TGI,MDA-N,> 100 µM
same,TGI,DU-145 prostate,> 100 µM
same,TGI,RXF 393 renal,> 100 µM
same,TGI,U251 CNS,> 100 µM
same,TGI,K-562 leukemia,> 100 µM
same,TGI,HCT-15 colon,> 100 µM
same,TGI,SK-MEL-2 melanoma,> 100 µM
same,TGI,HS 578T breast,> 100 µM
same,TGI,SR leukemia,> 100 µM
same,TGI,MDA-MB-231 breast,> 100 µM
same,TGI,OVCAR-3 ovarian,> 100 µM
same,TGI,SNB-19 CNS,> 100 µM
same,TGI,OVCAR-5 ovarian,> 100 µM
same,TGI,HOP-92 NSCLC,> 100 µM
same,TGI,SF-295 CNS,> 100 µM
same,TGI,MDA-MB-435,> 100 µM
same,TGI,LOX IMVI melanoma,> 100 µM
same,TGI,RPMI-8226 leukemia,> 100 µM
same,TGI,MALME-3M melanoma,> 100 µM
same,TGI,MCF7 breast,> 100 µM
same,TGI,NCI-H23 lung,> 100 µM
same,TGI,HOP-62 NSCLC,> 100 µM
same,TGI,IGROV1 ovarian,> 100 µM
same,TGI,OVCAR-8 ovarian,> 100 µM
same,TGI,COLO 205 colon,> 100 µM
same,TGI,NCI-H226 lung,> 100 µM
same,TGI,SN12C renal,> 100 µM
same,TGI,A549 NSCLC,> 100 µM
same,TGI,SNB-75 CNS,> 100 µM
same,TGI,CAKI-1 renal,> 100 µM
same,TGI,NCI-H522 lung,> 100 µM
same,TGI,BT-549 breast,> 100 µM
same,TGI,SF-539 CNS,> 100 µM
same,TGI,HCC-2998 colon,> 100 µM
same,TGI,UACC-62 melanoma,> 100 µM
same,TGI,HT29 colon,> 100 µM
same,TGI,KM12 colon,> 100 µM
same,TGI,OVCAR-4 ovarian,> 100 µM
same,TGI,EKVX NSCLC,> 100 µM
same,TGI,NCI/ADR-RES ovarian,> 100 µM
same,TGI,SW-620 colon,> 100 µM
same,TGI,ACHN renal,> 100 µM
same,TGI,SK-OV-3 ovarian,> 100 µM
same,TGI,SK-MEL-28 melanoma,> 100 µM
same,TGI,SF-268 CNS,> 100 µM
same,TGI,T-47D breast,> 100 µM
